Data taken from patent US9120728B2, “Modulators of cortical dopaminergic- and NMDA-receptor-mediated glutamatergic neurotransmission” (INTEGRATIVE RESEARCH LABORATORIES SWEDEN AB, priority 2011, dated 2015).

Legend:
drug-naive rats = experiment: Effects on spontaneous locomotion (locomotor activity in drug-naive rats); type: in vivo, rat; settings: recorded for 60 minutes immediately after drug administration
Experimental: Prior art dopamine receptor antagonists are known to induce profound decrease in locomotor activity (catalepsy).
Behavioural activity is measured using eight Digiscan activity monitors (RXYZM (16) TAO, Omnitech Electronics, Columbus, Ohio, USA), connected to an Omnitech Digiscan analyzer and an Apple Macintosh computer equipped with a digital interface board (NB DIO-24, National Instruments, USA). Each activity monitor consists of a quadratic metal frame (W×L=40 cm×40 cm) equipped with photobeam sensors. During measurements of behavioural activity, a rat is put in a transparent acrylic cage (WxLxH, 40×40×30 cm) which in turn is placed in the activity monitor. Each activity monitor is equipped with three rows of infrared photobeam sensors, each row consisting of 16 sensors. Two rows are placed along the front and the side of the floor of the cage, at a 90° angle, and the third row is placed 10 cm above the floor to measure vertical activity. Photobeam sensors are spaced 2.5 cm apart. Each activity monitor is fitted in an identical sound and light attenuating box containing a weak house light and a fan.
The computer software is written using object oriented programming (LabVIEW®, National instruments, Austin, Tex., USA).
Behavioural data from each activity monitor, representing the position (horizontal center of gravity and vertical activity) of the animal at each time, are recorded at a sampling frequency of 25 Hz and collected using a custom written LABView™ application. The data from each recording session are stored and analyzed with respect to distance traveled. Each behavioural recording session lasts 60 min, starting approximately 4 min after the injection of test compound. Similar behavioural recording procedures are applied for drug-naïve and drug pre-treated rats. Rats pre-treated with d-amphetamine are given a dose of 1.5 mg/kg i.p. 10 min before the recording session in the activity monitor. Rats pre-treated with MK-801 are given a dose of 0.7 mg/kg i.p. 90 min before the recording session in the activity monitor. The results are presented as counts/60 minutes, or counts/30 minutes, in arbitrary length units. Statistical comparisons are carried out using Student's t-test against the control group. In MK-801 or amphetamine pre-treated animals, statistical comparisons are made against the MK801 or d-amphetamine controls, respectively.

[1] = test system: d-amphetamine pre-treated rats; experiment: Reduction of amphetamine-induced hyper-locomotion; type: in vivo; settings: Rattus norvegicus; rats pre-treated with d-amphetamine 1.5 mg/kg i.p.; test compound 0-100 μmol/kg s.c.; distance during last 45 minutes of one hour
Excerpt: The increase in activity after treatment with d-amphetamine is a standard model of hyperdopaminergia. In this model, dopaminergic neurotransmission is increased by systemic administration of d-amphetamine at a dose that is sufficiently high to produce a large increase in locomotor activity. The ability of a compound to antagonize this hyperactivity reflects anti-dopaminergic properties. Furthermore, antagonism of d-amphetamine induced hyperactivity is widely used as a standard assay of antipsychotic activity (see Psychopharmacology 4th Generation of progress Chapter 68, p 793-795).
(§1) Behavioural activity is measured using eight Digiscan activity monitors (RXYZM (16) TAO, Omnitech Electronics, Columbus, Ohio, USA), connected to an Omnitech Digiscan analyzer and an Apple Macintosh computer equipped with a digital interface board (NB DIO-24, National Instruments, USA). […]
(§2) Behavioural data from each activity monitor, representing the position (horizontal center of gravity and vertical activity) of the animal at each time, are recorded at a sampling frequency of 25 Hz and collected using a custom written LABView™ application. The data from each recording session are stored and analyzed with respect to distance traveled. […]
ED50 value for reduction of amphetamine-induced hyper-locomotion is calculated by curve fitting. […]

MK-801 pre-treated rats = experiment: Reduction of MK-801-induced hyper-locomotion; type: in vivo; settings: Rattus norvegicus; MK-801 0.7 mg/kg i.p. 90 minutes before test compound; locomotor activity between 45 and 60 minutes after administration; 0-100 μmol/kg s.c.
Excerpt: Reduction of MK-801-Induced Hyper-Locomotion Another animal model of antipsychotic activity is based on administration of the glutamate antagonist MK-801. Glutamate antagonists (i.e. NMDA antagonists), can induce psychoses in man (see Psychopharmacology, 4th Generation of progress Chapter 101, p. 1205 and 1207) and induce behavioural aberrations in animals. Thus, the ability of a drug to affect schizophrenia and psychotic states can be measured using behavioural models based on experimentally-induced hypoglutamatergic states. In this study the NMDA antagonist MK-801 (0.7 mg/kg i.p.) was used to create a hypoglutamatergic state where the rats display abnormal, hyperactive behaviour.
as §1, §2

With `CCCNCCOc1cc(F)cc(S(C)(=O)=O)c1` [Example 1, N-[2-(3-fluoro-5-methylsulfonyl-phenoxy)ethyl]propan-1-amine] the Locomotor activity (drug-naive rats; 3.7 μmol/kg) was 8049 counts/60 min, the Locomotor activity (drug-naive rats; 11 μmol/kg) was 7325 counts/60 min and the Locomotor activity (drug-naive rats; 33 μmol/kg) was 6025 counts/60 min. The ED50 [1] was 24 µmol/kg and the ED50 (MK-801 pre-treated rats) was 5.6 µmol/kg.
